Test results published in patent US6413517B1, “Identification of broadly reactive DR restricted epitopes” (Epimmune, Inc., priority 1997, dated 2002).
Where two headings read alike, the source gives them in different places. No end group written: not given here.

Key:
DRB1*1501 (DR2w2b) = target: T1, DRB1*1501 (DR2w2b) (Homo sapiens, UniProt P01903+P01911); assay: biochemical; type: binding
T1 construct: expressed in transfected cells; host or cells: transfected fibroblasts L466.1

DRB1*1101 (DR5w11) = target: T2, DRB1*1101 (DR5w11) (Homo sapiens, UniProt P01903+P01911, A100R/A169T/A87E/I96F/K41T/L162R/M171V/P40S/Q125H/Q178H/Q39Y/Q99D/R42S/S66Y/T262R/V115G/W38E); assay: biochemical; type: binding
T2 construct: Epstein-Barr virus (EBV) transformed homozygous cell lines were used as sources; endogenous in cells; host or cells: SWEIG (EBV-transformed homozygous B cell line)

DRB1*0101 (DR1) = target: T3, DRB1*0101 (DR1) (Homo sapiens, UniProt P01903+P01911, A100R/D57E/F55L/F60I/F76Y/I96L/L162R/M171V/P40L/Q125E/R42F/V115G/Y59C); assay: biochemical; type: binding; conditions: Binding Capacity (IC 50% nM) DR1,4,7 DRB1
T3 construct: Epstein-Barr virus (EBV) transformed homozygous cell lines were used as sources; endogenous in cells; host or cells: LG2 (EBV-transformed homozygous B cell line)

DRB1*0405 (DR4w15) = target: T4, DRB1*0405 (DR4w15) (Homo sapiens, UniProt P01903+P01911, A100R/A169T/D86S/F76Y/I96L/K127E/L162R/M171V/N62H/P40V/Q125Y/R42H/S133A/S149N/S66Y/V115G/V209L/W38E); assay: biochemical; type: binding
T4 construct: Epstein-Barr virus (EBV) transformed homozygous cell lines were used as sources; endogenous in cells; host or cells: KT3 (EBV-transformed homozygous B cell line)

DRB1*0701 (DR7) = target: T5, DRB1*0701 (DR7) (Homo sapiens, UniProt P01903+P01911, A100R/A102G/A103Q/D57E/D86V/E43K/F76Y/K127E/L162R/M171V/P40G/Q125H/Q99D/R33Q/R42Y/R54Q/S133A/S66F/T210M/V115G/Y107V/Y59L/Y89S); assay: biochemical; type: binding
T5 construct: Epstein-Barr virus (EBV) transformed homozygous cell lines were used as sources; endogenous in cells; host or cells: PITOUT (EBV-transformed homozygous B cell line)

DRB1*0301 (DR3w17) [1] = target: T6, DRB1*0301 (DR3w17) (Homo sapiens, UniProt P01903+P01911, A100K/A102G/A103R/A169T/F55Y/I96L/K41T/L162R/M171V/P40S/Q125H/Q178H/Q39Y/R42S/S66N/T106N/T262R/W38E/Y61H); conditions: read-out: Binding Capacity (IC 50% nM) Other Alleles DR3
DRB1*0301 (DR3w17) [2] = target: T6, DRB1*0301 (DR3w17); assay: biochemical; conditions: Binding Capacity (IC50% nM) DR3
DRB1*0901 (DR9) = target: T7, DRB1*0901 (DR9) (Homo sapiens, UniProt P01903+P01911, A100R/A103E/D57H/D86V/F55Y/F60I/F76Y/I96F/K127E/L162R/M171V/P40D/Q125H/Q99R/R33Q/R42F/S133A/S66N/T210M/V115G/W38K/Y107V/Y59G/Y89S); assay: biochemical; type: binding
T7 construct: Epstein-Barr virus (EBV) transformed homozygous cell lines were used as sources; endogenous in cells

DRB1*1201 (DR5w12) = target: T8, DRB1*1201 (DR5w12) (Homo sapiens, UniProt P01903+P01911, A100R/A169T/D57E/D86V/F55L/H45Y/K41T/L162R/M171V/P40S/Q125H/Q178H/Q39Y/Q99D/R42G/S66L/T262R/V114A/V67L/W38E/Y59H/Y61H/Y89S); assay: biochemical; type: binding
T8 construct: Epstein-Barr virus (EBV) transformed homozygous cell lines were used as sources; endogenous in cells; host or cells: Herluf (EBV-transformed homozygous B cell line)

DRB1*1302 (DR6w19) = target: T9, DRB1*1302 (DR6w19) (Homo sapiens, UniProt P01903+P01911, A100E/A169T/K41T/L162R/M171V/P40S/Q125H/Q178H/Q39Y/Q99D/R42S/S66N/T262R/V115G/W38E/Y61H); assay: biochemical; type: binding
T9 construct: Epstein-Barr virus (EBV) transformed homozygous cell lines were used as sources; the source of Class II molecules the EBV transformed homozygous cell line H0301; endogenous in cells; host or cells: H0301 (EBV-transformed homozygous B cell line)

DRB1*0802 (DR8w2) = target: T10, DRB1*0802 (DR8w2) (Homo sapiens, UniProt P01903+P01911, A100R/A103L/A169T/F76Y/H45Y/I96F/K41T/L162R/M171V/P40S/Q125H/Q178H/Q39Y/Q99D/R218S/R42G/S66Y/V115G/W38E); assay: biochemical; type: binding
T10 construct: Epstein-Barr virus (EBV) transformed homozygous cell lines were used as sources; endogenous in cells; host or cells: OLL (EBV-transformed homozygous B cell line)

DRB1*0401 (DR4w4) = target: T11, DRB1*0401 (DR4w4) (Homo sapiens, UniProt P01903+P01911, A100K/A169T/F76Y/I96L/K127E/L162R/M171V/N62H/P40V/Q125Y/R42H/S133A/S149N/S66Y/V115G/V209L/W38E); assay: biochemical; type: binding
T11 construct: Epstein-Barr virus (EBV) transformed homozygous cell lines were used as sources; endogenous in cells; host or cells: PREISS (EBV-transformed homozygous B cell line)

DRB5*0101 (DR2w2a) = target: T12, DRB5*0101 (DR2w2a) (Homo sapiens, UniProt P01903+Q30154); assay: biochemical; type: binding
T12 construct: Epstein-Barr virus (EBV) transformed homozygous cell lines were used as sources; endogenous in cells; host or cells: GM3107 (EBV-transformed homozygous B cell line)

[3] = read-out: Binding Capacity (IC 50% nM) Other Alleles DR2w2b
[4] = Binding Capacity (IC50% nM) DR5w11
[5] = read-out: Binding Capacity (IC 50% nM) Other Alleles DR5w11
[6] = read-out: Binding Capacity (IC 50% nM) Other Alleles DR4w15
[7] = read-out: Binding Capacity (IC 50% nM) DR1,4,7 DR7
[8] = Binding Capacity (IC50% nM) DR9
[9] = read-out: Binding Capacity (IC 50% nM) Other Alleles DR9
[10] = Binding Capacity (IC50% nM) DR5w12
[11] = read-out: Binding Capacity (IC 50% nM) Other Alleles DR5w12
[12] = Binding Capacity (IC50% nM) DR6w19
[13] = read-out: Binding Capacity (IC 50% nM) Other Alleles DR6w19
[14] = Binding Capacity (IC50% nM) DR8w2
[15] = read-out: Binding Capacity (IC 50% nM) Other Alleles DR8w2
[16] = Binding Capacity (IC 50% nM) DR1,4,7 DR4w4
[17] = Binding Capacity (IC50% nM) DR2w2a
[18] = read-out: Binding Capacity (IC 50% nM) Other Alleles DR2w2a

T2 sequence (P01903 26-254, other chains not shown): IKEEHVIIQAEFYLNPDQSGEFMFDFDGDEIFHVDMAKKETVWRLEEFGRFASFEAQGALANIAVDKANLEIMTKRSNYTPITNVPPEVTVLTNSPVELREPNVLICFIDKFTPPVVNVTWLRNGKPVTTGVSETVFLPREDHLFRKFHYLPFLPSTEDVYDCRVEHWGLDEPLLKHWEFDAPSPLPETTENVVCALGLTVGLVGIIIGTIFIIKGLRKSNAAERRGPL

For LWWSTMYLTHHYFVDL [Peptide 1136.46], the IC50 (DRB1*1501 (DR2w2b); Binding Capacity (IC50% nM) DR2w2b) was greater than 10000 nM, the IC50 (DRB1*1501 (DR2w2b); [3]) was greater than 1000 nM and the IC50 (DRB1*1101 (DR5w11); [4]) was greater than 10000 nM. For the same compound, the IC50 (DRB1*1101 (DR5w11); [5]) was greater than 1000 nM, the IC50 (DRB1*0101 (DR1)) was less than 1000 nM and the IC50 (DRB1*0405 (DR4w15); Binding Capacity (IC50% nM) DR4w15) was greater than 10000 nM. For the same compound, the IC50 (DRB1*0405 (DR4w15); [6]) was greater than 1000 nM, the IC50 (DRB1*0701 (DR7); Binding Capacity (IC50% nM) DR7) was 5810 nM and the IC50 (DRB1*0701 (DR7); [7]) was greater than 1000 nM. For the same compound, the IC50 (DRB1*0301 (DR3w17) [1]) was greater than 1000 nM, the IC50 (DRB1*0301 (DR3w17) [2]) was greater than 10000 nM and the IC50 (DRB1*0901 (DR9); [8]) was greater than 10000 nM. The IC50 (DRB1*0901 (DR9); [9]) was greater than 1000 nM, the IC50 (DRB1*1201 (DR5w12); [10]) was greater than 10000 nM and the IC50 (DRB1*1201 (DR5w12); [11]) was greater than 1000 nM. The IC50 (DRB1*1302 (DR6w19); [12]) was greater than 10000 nM, the IC50 (DRB1*1302 (DR6w19); [13]) was greater than 1000 nM and the IC50 (DRB1*0802 (DR8w2); [14]) was greater than 10000 nM. For the same compound, the IC50 (DRB1*0802 (DR8w2); [15]) was greater than 1000 nM, the IC50 (DRB1*0401 (DR4w4); [16]) was less than 1000 nM and the IC50 (DRB1*0401 (DR4w4); Binding Capacity (IC50% nM) DR4w4) was 985 nM. For the same compound, the IC50 (DRB5*0101 (DR2w2a); [17]) was greater than 10000 nM and the IC50 (DRB5*0101 (DR2w2a); [18]) was greater than 1000 nM.
Compound CC[C@H](C)[C@H](NC(=O)[C@H](CO)NC(=O)[C@H](CO)NC(=O)[C@H](CC(N)=O)NC(=O)[C@@H](NC(=O)[C@@H](NC(=O)[C@H](CC(N)=O)NC(=O)[C@H](Cc1ccccc1)NC(=O)[C@@H](N)C(C)C)C(C)C)C(C)C)C(=O)NCC(=O)N[C@@H](CC(C)C)C(=O)N[C@H](C(=O)N[C@@H](CCSC)C(=O)N[C@H](C(=O)N[C@@H](CC(C)C)C(=O)O)C(C)C)[C@@H](C)CC [Peptide F107.23] has an IC50 (DRB1*1501 (DR2w2b); [3]) greater than 1000 nM, an IC50 (DRB1*1101 (DR5w11); [4]) greater than 10000 nM and an IC50 (DRB1*1101 (DR5w11); [5]) greater than 1000 nM. It also gave an IC50 (DRB1*0101 (DR1)) of less than 1000 nM, an IC50 (DRB1*0405 (DR4w15); [6]) greater than 1000 nM and an IC50 (DRB1*0701 (DR7); Binding Capacity (IC 50% nM) DR1,4,7 DR7) of less than 1000 nM. The IC50 (DRB1*0301 (DR3w17) [1]) was greater than 1000 nM, the IC50 (DRB1*0301 (DR3w17) [2]) was greater than 10000 nM and the IC50 (DRB1*0901 (DR9); Binding Capacity (IC 50% nM) Other Alleles DR9) was less than 1000 nM. The IC50 (DRB1*1201 (DR5w12); [10]) was greater than 10000 nM, the IC50 (DRB1*1201 (DR5w12); [11]) was greater than 1000 nM and the IC50 (DRB1*1302 (DR6w19); Binding Capacity (IC 50% nM) Other Alleles DR6w19) was less than 1000 nM. It also gave an IC50 (DRB1*0802 (DR8w2); [14]) greater than 10000 nM, an IC50 (DRB1*0802 (DR8w2); [15]) greater than 1000 nM and an IC50 (DRB1*0401 (DR4w4); read-out: Binding Capacity (IC 50% nM) DR1,4,7 DR4w4) greater than 1000 nM. The IC50 (DRB5*0101 (DR2w2a); [17]) was greater than 10000 nM and the IC50 (DRB5*0101 (DR2w2a); [18]) was greater than 1000 nM.
CC[C@H](C)[C@H](NC(=O)[C@H](CC(C)C)NC(=O)[C@H](CC(=O)O)NC(=O)[C@@H](NC(=O)[C@H](Cc1ccccc1)NC(=O)[C@H](Cc1ccc(O)cc1)NC(=O)[C@H](Cc1c[nH]cn1)NC(=O)[C@H](Cc1c[nH]cn1)NC(=O)[C@@H](N)[C@@H](C)O)C(C)C)C(=O)NCC(=O)NCC(=O)N[C@@H](C)C(=O)N[C@@H](CCSC)C(=O)N[C@@H](CC(C)C)C(=O)N[C@@H](CO)C(=O)N[C@@H](CC(C)C)C(=O)O [Peptide 1136.47] gave an IC50 (DRB1*1501 (DR2w2b); Binding Capacity (IC 50% nM) Other Alleles DR2w2b) of less than 1000 nM, an IC50 (DRB1*1101 (DR5w11); [5]) greater than 1000 nM and an IC50 (DRB1*0101 (DR1)) of less than 1000 nM. It also gave an IC50 (DRB1*0405 (DR4w15); [6]) greater than 1000 nM, an IC50 (DRB1*0701 (DR7); [7]) greater than 1000 nM and an IC50 (DRB1*0301 (DR3w17) [1]) greater than 1000 nM. It also gave an IC50 (DRB1*0301 (DR3w17) [2]) greater than 10000 nM, an IC50 (DRB1*0901 (DR9); [8]) greater than 10000 nM and an IC50 (DRB1*0901 (DR9); [9]) greater than 1000 nM. For the same compound, the IC50 (DRB1*1201 (DR5w12); [10]) was greater than 10000 nM, the IC50 (DRB1*1201 (DR5w12); [11]) was greater than 1000 nM and the IC50 (DRB1*1302 (DR6w19); [12]) was greater than 10000 nM. The IC50 (DRB1*1302 (DR6w19); [13]) was greater than 1000 nM, the IC50 (DRB1*0802 (DR8w2); [14]) was greater than 10000 nM and the IC50 (DRB1*0802 (DR8w2); [15]) was greater than 1000 nM. The IC50 (DRB1*0401 (DR4w4); [16]) was less than 1000 nM and the IC50 (DRB5*0101 (DR2w2a); Binding Capacity (IC 50% nM) Other Alleles DR2w2a) was less than 1000 nM.
